The conditions of data set [1]: initial pKa, cited from earlier work.
The conditions of data set [2]: 1% solution in water.
Data set [3] is described as follows: pH behaviour on addition of sodium hydroxide (FIG. 1). As to conditions: 0.2 g in 200 ml water, 0.1M sodium hydroxide added; during almost the entire addition. It is filed as physicochemical.
The mark [4] stands for this setting: other suitable buffer compounds (Table 3).
The mark [5] stands for this setting: buffers tested for stain inhibitor performance (Table 1).

Each structure is given as a SMILES string. Where two headings read alike, the source gives them in different places. Bounds are passed on as bounds.

One may read the pKa as the pH at which an ionisable group is half protonated.

Regarding `O=S(=O)(O)CCNC1CCCCC1` [CHES, 2-(cyclohexylamino) ethanesulphonic acid], the pKa in data set [1] (setting [4]) was 9.5.

`O=S(=O)(O)CC(O)CN1CCN(CC(O)CS(=O)(=O)O)CC1` (stereo not drawn) [POPSO, piperazine-N-N′-bis (2-hydroxypropanesulphonic acid)]: the pKa in data set [1] (setting [4]) is 7.8.

Consider `O=S(=O)(O)CCCNC(CO)(CO)CO` [TAPS, N-[tris(hydroxymethyl)methyl]-3-aminopropanesulphonic acid], for which the pKa in data set [1] (setting [5]) is 8.4.

Consider `O=C(O)CNC(CO)(CO)CO` [Tricine, N-[tris (hydroxymethyl)methy] glycine], for which the pKa in data set [1] (setting [5]) is 8.2.

In data set [2], `O=C(O)CCCCC(=O)O` [adipic acid] showed a pH of solution of 2.8. Also, in data set [3], the “pH during addition of alkali” value is on record as < 5.

Source of the values: patent US20090270306A1, “Glass Storage” (priority 2005, published 2009).
